The values that follow come from ChEMBL document CHEMBL3045305, “Synthesis, anticancer and antibacterial activities of piperine analogs” (Med Chem Res, 2013).

The structures appear in SMILES notation. Converted amounts (≈) assume the structure as drawn.

Type in all cases: functional
Experiment [1] has as its system Bacillus subtilis. As to the kind of experiment: Antibacterial activity against Bacillus subtilis assessed as growth inhibition after 24 hr by two fold serial dilution method.
Experiment [2] has as its system Staphylococcus aureus. As to the kind of experiment: Antibacterial activity against Staphylococcus aureus assessed as growth inhibition after 24 hr by two fold serial dilution method.
Experiment [3] concerns Shigella dysenteriae. The experiment in a line: Antibacterial activity against Shigella dysenteriae assessed as growth inhibition after 24 hr by two-fold serial dilution method.
The test system of experiment [4] is Klebsiella pneumoniae. The experiment in a line: Antibacterial activity against Klebsiella pneumoniae assessed as growth inhibition after 24 hr by two-fold serial dilution method.
Experiment [5] relates to Escherichia coli. As to the kind of experiment: Antibacterial activity against Escherichia coli assessed as growth inhibition after 24 hr by two-fold serial dilution method.
The subject of experiment [6] is Pseudomonas aeruginosa. As to the kind of experiment: Antibacterial activity against Pseudomonas aeruginosa assessed as growth inhibition after 24 hr by two-fold serial dilution method.
For experiment [7], the system named is Salmonella typhi. As to the kind of experiment: Antibacterial activity against Salmonella enterica subsp. enterica serovar Typhi assessed as growth inhibition after 24 hr by two fold serial dilution method.

The term MIC denotes the smallest concentration in the dilution series that meets the test's criterion for growth inhibition. For `O=C(/C=C/C=C/c1ccc2c(c1)OCO2)Nc1ccc(Cl)cc1`, the MIC in experiment [1] was found to be 500 µg/mL (≈ 1530 µM); in experiment [2], 200 µg/mL (≈ 610 µM); in experiment [3], 200 µg/mL (≈ 610 µM); in experiment [4] it was 300 µg/mL (≈ 915 µM); in experiment [5], 100 µg/mL (≈ 305 µM); in experiment [6], 200 µg/mL (≈ 610 µM). Further, in experiment [7], the MIC is 400 µg/mL (≈ 1220 µM).

On to `O=C(/C=C/C=C/c1ccc2c(c1)OCO2)N[C@@H](Cc1c[nH]c2ccccc12)C(=O)O`, for which the MIC was determined as 400 µg/mL (≈ 989 µM) in experiment [1]; 300 µg/mL (≈ 742 µM) in experiment [2]; 300 µg/mL (≈ 742 µM) in experiment [3]; 200 µg/mL (≈ 495 µM) in experiment [4]; 400 µg/mL (≈ 989 µM) in experiment [5]; 200 µg/mL (≈ 495 µM) in experiment [6]. Besides, the MIC in experiment [7] worked out at 200 µg/mL (≈ 495 µM).

In the case of `O=C(/C=C/C=C/c1ccc2c(c1)OCO2)N[C@@H](Cc1cnc[nH]1)C(=O)O`, the MIC in experiment [1] came out at 300 µg/mL (≈ 844 µM); in experiment [2], 300 µg/mL (≈ 844 µM); in experiment [3], 200 µg/mL (≈ 563 µM); in experiment [4] it was 300 µg/mL (≈ 844 µM); in experiment [5], 200 µg/mL (≈ 563 µM); in experiment [6], 300 µg/mL (≈ 844 µM). In experiment [7], the MIC was found to be 300 µg/mL (≈ 844 µM).

Regarding `O=C(/C=C/C=C/c1ccc2c(c1)OCO2)N1CCCCC1` [PIPERINE], the MIC in experiment [1] was determined as 500 µg/mL (≈ 1750 µM); in experiment [2] it was 300 µg/mL (≈ 1050 µM); in experiment [3], 600 µg/mL (≈ 2100 µM); in experiment [4] it was 200 µg/mL (≈ 701 µM); in experiment [5] it was 300 µg/mL (≈ 1050 µM); in experiment [6], 100 µg/mL (≈ 350 µM). Besides, in experiment [7], the MIC was 200 µg/mL (≈ 701 µM).

In the case of `O=C(/C=C/C=C/c1ccc2c(c1)OCO2)N[C@@H](Cc1ccccc1)C(=O)O`, the MIC in experiment [1] was found to be 400 µg/mL (≈ 1090 µM); in experiment [2], 400 µg/mL (≈ 1090 µM); in experiment [3] it was 150 µg/mL (≈ 411 µM); in experiment [4] it was 300 µg/mL (≈ 821 µM); in experiment [5], 300 µg/mL (≈ 821 µM); in experiment [6], 400 µg/mL (≈ 1090 µM). The minimal inhibitory concentration (MIC) in experiment [7] is 200 µg/mL (≈ 547 µM).

As to `O=C(/C=C/C=C/c1ccc2c(c1)OCO2)Nc1ccc(Br)cc1`, the minimal inhibitory concentration (MIC) in experiment [1] worked out at 500 µg/mL (≈ 1340 µM); in experiment [2] it was 300 µg/mL (≈ 806 µM); in experiment [3], 300 µg/mL (≈ 806 µM); in experiment [4], 100 µg/mL (≈ 269 µM); in experiment [5], 200 µg/mL (≈ 537 µM); in experiment [6], 500 µg/mL (≈ 1340 µM). In addition, in experiment [7], the MIC was found to be 300 µg/mL (≈ 806 µM).

For the molecule `CC1(C)S[C@@H]2[C@H](NC(=O)[C@H](N)c3ccccc3)C(=O)N2[C@H]1C(=O)O` [AMPICILLIN], the minimal inhibitory concentration (MIC) is 10 µg/mL (≈ 28.6 µM) in experiment [1]; 11 µg/mL (≈ 31.5 µM) in experiment [2]; 16 µg/mL (≈ 45.8 µM) in experiment [3]; 8 µg/mL (≈ 22.9 µM) in experiment [4]; 5 µg/mL (≈ 14.3 µM) in experiment [5]; 50 µg/mL (≈ 143 µM) in experiment [6]. Also, the MIC in experiment [7] is 15 µg/mL (≈ 42.9 µM).
